Laboratory results: patent US6599908B1, “Fused polycyclic 2-aminopyrimidine derivatives” (Celltech R & D Limited, priority 1996, dated 2003)

- melting point: 201 to 202 °C
Structure (SMILES): COc1cc(Nc2ncc3c(n2)-c2ccccc2CCC3)cc(OC)c1OC [Example 6, N-(3,4,5-Trimethoxyphenyl)-6,7-dihydro-5H-benzo[6,7]cyclohepta[d]pyrimidine-2-amine]
